Assay results reported in publication PMC5663397, “A composite docking approach for the identification and characterization of ectosteric inhibitors of cathepsin K” (PLoS ONE, 2017).
Where “and” joins values, the source holds several entries; their conditions need not be identical. Equal entries are not always repeated. Entries after “also recorded” stand apart in the source; their conditions may differ. Structures can show the parent of a compound that is named as a salt. Where two headings read alike, the source gives them in different places.

Tests used:
[1] = target: T1, CatK (Homo sapiens, UniProt P43235); assay: CatK collagenase assay (type I collagen degradation, SDS-PAGE); assay type: biochemical
T1 construct: made in house; host or cells: Pichia pastoris
T1 sequence (P43235 115-329): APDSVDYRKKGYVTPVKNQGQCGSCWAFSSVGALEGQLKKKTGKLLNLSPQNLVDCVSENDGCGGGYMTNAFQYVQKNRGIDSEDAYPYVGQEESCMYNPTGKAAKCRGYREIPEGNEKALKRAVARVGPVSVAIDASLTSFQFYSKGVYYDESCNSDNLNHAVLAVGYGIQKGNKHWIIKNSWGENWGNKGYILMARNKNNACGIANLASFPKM
Protocol: The collagenase inhibitory activities of all identified compounds were measured using a collagen degradation assay. Soluble bovine type I collagen (0.6 mg/mL) was incubated with 400 nM recombinant human CatK, in the presence or absence of 200 nM chondroitin 4-sulfate (C4-S) in 100 mM sodium acetate buffer, pH 5.5, containing 2.5 mM dithiothreitol (DTT) (Sigma-Aldrich Canada, Oakville, Ontario, Canada) and 2.5 mM ethylenediametetraacetate (EDTA) (Sigma-Aldrich). In the experiments involving detergent to minimize inhibitor aggregation, 0.001% or 0.005% Triton X-100 was added to the buffer with the inhibitor. The recombinant human CatK was expressed in Pichia pastoris and purified as previously described. Selected compounds identified by molecular docking were ordered from the National Cancer Institute through the Developmental Therapeutics Program (Rockville, MD). All compounds were dissolved in DMSO as a 20 or […] stock. […] After incubation at 28°C for 4 hours, 1 μM of E-64 was added to block the residual activity of CatK.
(§1) Digestion with MMP-1 was performed in 50 mM Tris-HCl, pH 7.4, containing 200 mM NaCl and 5 mM CaCl2 at 28°C for 4 h. Reactions were stopped by adding 25 mM EDTA as previously described. Samples were analyzed using 10% SDS-PAGE gels and stained with Coomassie. The resulting bands of α-collagen chains were quantitatively assessed using ImageJ (Version 1.5) and IC50 graphs were plotted using GraphPad Prism (GraphPad Software, Version 5.0, La Jolla California USA).

[2] = target: T1, CatK; assay: Z-Phe-Arg-MCA cleavage assay with CatK; assay type: biochemical; details: 100 μM inhibitor, 5 nM CatK, 5 μM substrate, pH 5.5
Protocol: (§2) The enzymatic activity of CatK was monitored by measuring the rate of release of the fluorogenic group, amino-methyl coumarin at an excitation wavelength of 380 nm and an emission wavelength of 450 nm using a Molecular Devices SpectraMax Gemini spectrofluorometer. Inhibitors were added prior to measurement of enzyme activity. The assays were performed at 25°C at a fixed enzyme concentrations (5 nM) and substrate concentration (5 μM) in 100 mM sodium acetate buffer, pH 5.5, containing 2.5 mM DTT and 2.5 mM EDTA. Z-Phe-Arg-MCA hydrolysis with trypsin was carried out in 50 mM Tris-HCl, pH 8.8 at 10 nM enzyme concentration.

[3] = test system: human osteoclasts; assay: Osteoclast survival: CellTiter-Blue metabolic activity and osteoclast count after TRAcP staining; assay type: cell-based
Protocol: (§3) Osteoclasts were generated from mononuclear cells isolated from human bone marrow tissue (Lonza, Walkersville, MD). The bone marrow cells were centrifuged at 400 g for 5 min and the pellet was re-suspended in 10 mL α-MEM (α-Minimal Essential Media) and layered on 10 ml Ficoll-Plaque media solution. After centrifugation at 500 g for 30 min, the white interface containing the monocytes was harvested and washed twice with α-MEM. Cells were cultured in α-MEM containing 10% FBS and 25 ng/mL M-CSF for 24 hours and then cultured in 25 ng/mL RANKL and 25 ng/mL M-CSF for 7 days. Differentiated osteoclasts (100,000 cells per slice) were then seeded on each bone slice (5.5 mm diameter and 0.4 mm thickness; self-made) in the presence or absence of inhibitors and incubated for 72 hours at 5% CO2 and 37°C with the DMSO concentration at 0.1%. The inhibitor concentration range tested varied between 50 nM to 3 μM.
(§4) To compare the effects of the compounds on cell survival, the metabolic activity of osteoclasts was determined using the CellTiter-Blue Viability Assay (Promega, Madison, WI, USA). Bone slices from each condition (inhibitor-treated and control groups) were fixed in 4% formaldehyde and subsequently stained for tartrate-resistant acid phosphatase (TRAcP) activity (Acid Phosphatase, Leukocyte (TRAP) Kit; Sigma-Aldrich). Aliquots from cell culture media were used to determine the CTx-I concentration (MyBiosource ELISA kit, San Diego, CA). CTx-I is a CatK-specific C-terminal cleavage product of triple helical type I collagen. The total number of osteoclasts per bone slice was determined after TRAcP staining. Cells with ≥2 nuclei were counted as osteoclasts. After 72 h, bone slices from each condition were incubated in filtered water for cell lysis and cells were removed using a cotton stick. Subsequently the resorption cavities were stained with toluidine blue and observed by light microscopy. The number of resorption events and eroded bone surface area were determined as previously described. All light microscopic analyses were performed using a Nikon Eclipse LV100 microscope and a Nikon Eclipse Ci microscope.

[4] = target: T2, MMP-1 (Homo sapiens, UniProt P03956); assay: Collagen digestion with MMP-1; assay type: biochemical; details: 50 μM inhibitor, 400 nM MMP-1
T2 sequence (P03956 100-469): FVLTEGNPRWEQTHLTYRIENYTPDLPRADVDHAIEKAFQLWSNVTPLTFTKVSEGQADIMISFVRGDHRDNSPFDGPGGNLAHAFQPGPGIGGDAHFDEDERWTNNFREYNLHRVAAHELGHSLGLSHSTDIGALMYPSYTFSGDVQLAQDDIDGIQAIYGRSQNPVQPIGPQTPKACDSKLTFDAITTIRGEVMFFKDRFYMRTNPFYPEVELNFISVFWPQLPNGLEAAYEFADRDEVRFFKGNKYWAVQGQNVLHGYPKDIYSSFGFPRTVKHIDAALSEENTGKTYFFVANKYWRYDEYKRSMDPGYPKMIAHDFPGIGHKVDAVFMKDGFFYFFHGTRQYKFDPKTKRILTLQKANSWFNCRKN
Protocol: as §1

[5] = target: T2, MMP-1; assay: Gelatin degradation assay with MMP-1; assay type: biochemical; details: 50 μM inhibitor, 10 nM MMP-1
Protocol: Gelatin (0.6 mg/mL) degradation assays were performed in the same manner as the collagen degradation experiments with 10 nM enzyme and were incubated at 37°C for one hour at the appropriate pH values for the individual proteases (CatK, pH 5.5; MMP-1, pH 7.4; trypsin, pH 8.8).

[6] = test system: human osteoclasts; assay: Human osteoclast bone resorption assay on bone slices; assay type: cell-based; details: for IC50: human osteoclasts on bone slices, read-out: IC50 for inhibition of trench eroded surface per bone surface (bone resorption)
Protocol: as §3, §4

[7] = test system: Yeast; parameters: method as in earlier work; details: cited from earlier work
[8] = test system: trypsin; assay: Z-Phe-Arg-MCA hydrolysis with trypsin; assay type: biochemical; details: 50 μM (5,000-times molar excess)
Protocol: as §2, with “Evaluation of a potential active site inhibition of the compounds was performed using the fluorogenic Benzyloxycarbonyl-Phe-Arg-7-amido-4-methylcoumarin (Z-Phe-Arg-MCA) substrate (Bachem Americas, Inc, Torrance, California, USA) as previously described. The enzymatic” for “The enzymatic”

[9] = test system: human osteoclasts; details: cited from earlier work
[10] = test system: ovariectomiced mice; parameters: method as in PMID 28745432; details: cited from earlier work
[11] = 400 nM CatK, soluble bovine type I collagen 0.6 mg/mL, pH 5.5, 28°C, 4 h, read-out: Collagenase IC50
[12] = 1 μM inhibitor, 72 h, versus untreated

## CCc1cc2nc3c(=O)[nH]c(=O)nc-3n(CCN(CCO)CCO)c2cc1CC [compound 1, 10-[2-[bis(2-hydroxyethyl)amino]ethyl]-7,8-diethylbenzo[γ]pteridine-2,4-dione]
[1]; [11]
  IC50: < 20 µM and 4.7 µM and ~5 µM
[1]; Collagenase IC50 with 0.005% Triton X-100, in the presence of detergent, 0.005% Triton X-100
  IC50: 5.1 ± 1 µM
[1]; in the presence of detergent, 0.005% Triton X-100
  Collagenase IC50 with 0.005% Triton X-100: not significantly different
[2]
  inhibition at 100 µM: 9.5 ± 2.6%
[3]; CellTiter-Blue, compared with untreated cells
  Metabolic activity of osteoclasts: no significant differences
[3]; TRAcP staining, compared with untreated cells
  number of osteoclasts: no significant differences
[3]; osteoclast bone resorption assays
  cell toxicity: no cell toxicity effects
[4]
  inhibitory activity towards the collagenase activity of MMP-1: no inhibitory activity; also recorded: did not show inhibition
[5]
  inhibitory activity for the gelatinase activity of MMP-1: no inhibitory activity; also recorded: did not show inhibition
[6]; [12]
  Number of trenches: significant reduction
  percentage of eroded surface area / total eroded surface: very effective in reducing the total eroded surface; also recorded: significant reduction
[6]; Homo sapiens, Osteoclast, 72 h, 72 h
  IC50: ~0.3 µM
[6]; 72 h
  IC50: 0.312 ± 0.063 µM
[6]; osteoclast resorption assay, versus odanacatib
  overall potency, times lower than odanacatib: 15–20 times
[7]
  activity in NCI Yeast Anticancer Drug Screen: active

## CN(C)CCNc1ccc2ncn3c4ccc(O)cc4c(=O)c1c23 [compound 2, 2-((8-hydroxy-6-oxo-6H-imidazo[4,5,1-de]acridin-5-yl)amino)-N,N-dimethylethanaminium]
[1]; [11]
  IC50: < 20 µM and 7.6 µM
[2]
  inhibition at 100 µM: 6.1 ± 3.9%

## CCc1nc2ccc(NCCN(C)C)c3c(=O)c4ccccc4n1c23 [compound 4, 5-(2-(dimethylamino)ethylamino)-1-ethyl-6H-imidazo[4,5,1-de]acridin-6-one]
[1]; [11]
  IC50: < 20 µM and 9.9 µM
[2]
  inhibition at 100 µM: 2.3 ± 0.9%

## CCN(CC)CCNc1ccc2ncn3c4ccccc4c(=O)c1c23 [compound 5, 5-{[2-(diethylamino)ethyl]amino}-6H-imidazo[4,5,1-de]acridin-6-one hydrochloride (1:1)]
[1]; [11]
  IC50: < 20 µM and 13 µM
[2]
  inhibition at 100 µM: 3.7 ± 0.7%

## Cc1c2c(c(O)c3c(O)cccc13)C(=O)C1(O)C(=O)C(C(N)=O)C(O)C(N(C)C)C1C2 (stereo not shown) [compound 6, 4-(dimethylamino)-3,10,11,12a-tetrahydroxy-6-methyl-1,12-dioxo-3,4,4a,5-tetrahydro-2H-tetracene-2-carboxamide]
[1]; [11]
  IC50: ~35 µM and 34.8 µM
[8]
  inhibition of Z-Phe-Arg-MCA degradation by trypsin: 60%
[2]
  inhibition at 100 µM: 11.5 ± 2.6%

## O=C(Nc1cccc(C(=O)Nc2cccc(C3=NCCN3)c2)c1)Nc1cccc(C(=O)Nc2cccc(C3=NCCN3)c2)c1 [compound 8, N-[3-(4,5-dihydro-1H-imidazol-2-yl)phenyl]-3-[[3-[[3-(4,5-dihydro-1H-imidazol-2-yl)phenyl]carbamoyl]phenyl]carbamoylamino]benzamide hydrochloride]
[1]; [11]
  IC50: 12.8 µM and < 20 µM
[2]
  inhibition at 100 µM: 7.2 ± 3.6%

## CCN(CC)CC1=C/C(=N/NC2=C3C=CC(=O)C(NNc4ccc(O)c(CN(CC)CC)c4)=C3C=CC2=O)C=CC1=O.Cl [compound 9, 1-[2-[3-(diethylaminomethyl)-4-hydroxyphenyl]hydrazinyl]-5-[(2E)-2-[3-(diethylaminomethyl)-4-oxocyclohexa-2,5-dien-1-ylidene]hydrazinyl]naphthalene-2,6-dione hydrochloride]
[1]; [11]
  IC50: < 20 µM
[2]
  inhibition at 100 µM: 3.2 ± 0.8%
[7]
  activity in NCI Yeast Anticancer Drug Screen: active

## CC1CN=C(c2cccc(NC(=O)c3ccc(C(=O)Nc4cccc(C5=NCC(C)N5)c4)c(N)c3)c2)N1 (stereo not shown) [compound 80116]
[1]; [11]
  IC50: 89 µM

## CSCCC(NCC(N)Cc1ccc2ccccc2c1)C(=O)NCc1cccc(C(=O)NC(CNC(CC(C)C)C(=O)O)Cc2ccccc2)c1 (stereo not shown) [compound 719315]
[1]; [11]
  IC50: 88 µM

## CC(C)(F)C[C@H](N[C@@H](c1ccc(-c2ccc(S(C)(=O)=O)cc2)cc1)C(F)(F)F)C(=O)NC1(C#N)CC1 [odanacatib]
[9]; read-out: IC50 for human-osteoclast-mediated bone resorption
  IC50: 0.0146 µM

## Cc1c(S(=O)(=O)O)oc2c1C(=O)C(=O)c1c-2ccc2c1CCCC2(C)C [tanshinone IIA sulfonate]
[9]; read-out: IC50 in osteoclast resorption assay
  IC50: 0.24 µM
[10]
  efficacy in ovariectomiced mice: showed efficacy
